Test results reported in US9108957B2 (MITSUBISHI TANABE PHARMA CORPORATION, priority 2009, dated 2015).

Target: human recombinant TPK1 (Homo sapiens, UniProt P49841)
Test: Inhibitory activity against P-GS1 phosphorylation by TPK1 (Kinase Glo luminescence)
Type: biochemical
Details: 7.5 μM P-GS1, 10 μM ATP, 25° C. for 16 hours, Kinase Glo Reagent luminescent signal
Description: Inhibitory Activity of the Medicament of the Present Invention Against P-GS1 Phosphorylation by Bovine Cerebral TPK1
A mixture containing 100 mM HEPES-sodium hydroxide (pH 7.2), 1 mM magnesium acetate, 1 mM EGTA, 1 mM dithiothreitol (DTT), 0.02% Tween 20, 7.5 μM P-GS1, 10 μM ATP, human recombinant TPK1 and a compound shown in Table (a final mixture contained 1% DMSO deriving from a solution of a test compound prepared in the presence of 10% DMSO) was used as a reaction system. The phosphorylation was started by adding ATP, and the reaction was conducted at 25° C. for 16 hours. Then equal volume of Kinase Glo Reagent (Promega) was added to the mixture and luminescent signal from the mixture was measured. IC50 for each compound was calculated by setting the data of mixture without enzyme as 0% activity and that without compound as 100% activity.

Sequence of human recombinant TPK1 (P49841 whole entry): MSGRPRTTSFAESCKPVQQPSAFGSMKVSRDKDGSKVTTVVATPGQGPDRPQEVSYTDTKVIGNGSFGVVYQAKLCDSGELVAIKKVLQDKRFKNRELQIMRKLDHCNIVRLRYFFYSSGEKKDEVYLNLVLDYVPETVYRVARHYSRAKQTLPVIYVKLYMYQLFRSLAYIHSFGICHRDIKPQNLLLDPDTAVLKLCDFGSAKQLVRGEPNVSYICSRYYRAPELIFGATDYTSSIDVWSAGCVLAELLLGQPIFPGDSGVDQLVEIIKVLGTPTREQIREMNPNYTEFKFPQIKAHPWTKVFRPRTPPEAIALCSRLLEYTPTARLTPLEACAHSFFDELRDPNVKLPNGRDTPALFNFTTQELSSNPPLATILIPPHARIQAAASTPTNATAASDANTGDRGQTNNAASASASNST

Question: Cn1c(N2CCCO[C@H](c3cccc(C#N)c3)C2)nc(-c2ccncc2F)cc1=O [Compound A047] was tested. Which IC50 did it give?
Answer: 0.0675 µM

Question: With Cn1c(N2CCCO[C@H](c3cccc(C(N)=O)c3)C2)nc(-c2ccncc2)cc1=O [Compound A048, (R)-2-[2-(3-aminocarbonylphenyl)-1,4-oxazepan-4-yl]-3-methyl-6-(pyridin-4-yl)pyrimidin-4(3H)-one] as the compound, how does the IC50 read?
Answer: 0.0688 µM

Question: Cn1c(N2CCCO[C@H](c3cccc(C(N)=O)c3)C2)nc(-c2ccncn2)cc1=O [Compound A049, (R)-2-[2-(3-aminocarbonylphenyl)-1,4-oxazepan-4-yl]-3-methyl-6-(pyrimidin-4-yl)pyrimidin-4(3H)-one] was tested. Which IC50 did it give?
Answer: 0.0706 µM

Question: Which IC50 does the source give for Cc1nc(-c2ccc([C@H]3CN(c4nc(-c5ccncc5)cc(=O)n4C)CCCO3)cc2)no1 [Compound A050, (S)-2-[2-[4-(5-methyl-[1,2,4]oxadiazol-3-yl)-phenyl]-1,4-oxazepan-4-yl]-3-methyl-6-(pyridin-4-yl)pyrimidin-4(3H)-one] here?
Answer: 0.0774 µM

Question: CC1CN(c2nc(-c3ccncn3)cc(=O)n2C)CCCO1 (stereo not drawn) [Compound A051, 2-(2-methyl-1,4-oxazepan-4-yl)-3-methyl-6-(pyrimidin-4-yl)pyrimidin-4(3H)-one] was tested. Which IC50 did it give?
Answer: 0.0803 µM

Question: How did the IC50 turn out when Cc1nc(-c2ccc([C@@H]3CN(c4nc(-c5ccncc5F)cc(=O)n4C)CCCO3)cc2)no1 [Compound A052, (R)-2-[2-[4-(5-methyl-1,2,4-oxadiazol-3-yl)-phenyl]-1,4-oxazepan-4-yl]-6-(3-fluoropyridin-4-yl)-3-methylpyrimidin-4(3H)-one] was run?
Answer: 0.0921 µM

Question: For Cc1noc(-c2ccc([C@@H]3CN(c4nc(-c5ccncc5F)cc(=O)n4C)CCCO3)cc2)n1 [Compound A053, (R)-2-[2-[4-(3-methyl-1,2,4-oxadiazol-5-yl)-phenyl]-1,4-oxazepan-4-yl]-6-(3-fluoropyridin-4-yl)-3-methylpyrimidin-4(3H)-one], which IC50 is on record?
Answer: 0.1 µM

Question: Which IC50 does the source give for Cn1c(N2CCCO[C@H](c3ccc(F)cc3)C2)nc(-c2ccncc2F)cc1=O [Compound A054, (R)-2-[2-(4-fluorophenyl)-1,4-oxazepan-4-yl]-6-(3-fluoropyridin-4-yl)-3-methylpyrimidin-4(3H)-one] here?
Answer: 0.111 µM

Question: Cc1nc(-c2cccc([C@@H]3CN(c4nc(-c5ccncc5F)cc(=O)n4C)CCCO3)c2)no1 [Compound A055] was tested. Which IC50 did it give?
Answer: 0.164 µM

Question: Cc1noc(-c2cccc([C@H]3CN(c4nc(-c5ccncc5)cc(=O)n4C)CCCO3)c2)n1 [Compound A056, (S)-2-[2-[3-(3-methyl-1,2,4-oxadiazol-5-yl)-phenyl]-1,4-oxazepan-4-yl]-3-methyl-6-(pyridin-4-yl)pyrimidin-4(3H)-one] was tested. Which IC50 did it give?
Answer: 0.169 µM

Question: Cn1c(N2CCCO[C@H](c3ccc(F)cc3)C2)nc(-c2ccncc2)cc1=O [Compound A057, (R)-2-(2-(4-fluorophenyl)-1,4-oxazepan-4-yl)-3-methyl-6-(pyridin-4-yl)pyrimidin-4(3H)-one] was tested. Which IC50 did it give?
Answer: 0.207 µM

Question: With Cn1c(N2CCCO[C@H](c3ccc(Br)cc3)C2)nc(-c2ccncn2)cc1=O [Compound A058, (R)-2-(2-(4-bromophenyl)-1,4-oxazepan-4-yl)-3-methyl-6-(pyrimidin-4-yl)pyrimidin-4(3H)-one] as the compound, how does the IC50 read?
Answer: 0.221 µM

Question: Cc1noc(-c2cccc([C@@H]3CN(c4nc(-c5ccncc5F)cc(=O)n4C)CCCO3)c2)n1 [Compound A059, (R)-2-[2-[3-(3-methyl-1,2,4-oxadiazol-5-yl)-phenyl]-1,4-oxazepan-4-yl]-6-(3-fluoropyridin-4-yl)-3-methylpyrimidin-4(3H)-one] was tested. Which IC50 did it give?
Answer: 0.241 µM

Question: How did the IC50 turn out when Cn1c(N2CCCO[C@H](c3ccc(C(N)=O)cc3)C2)nc(-c2ccncn2)cc1=O [Compound A060, (R)-2-[2-(4-aminocarbonylphenyl)-1,4-oxazepan-4-yl]-3-methyl-6-(pyrimidin-4-yl)pyrimidin-4(3H)-one] was run?
Answer: 0.252 µM

Question: With CC1CN(c2nc(-c3ccncc3)cc(=O)n2C)CCCO1 (stereo not drawn) [Compound A061, 2-(2-methyl-1,4-oxazepan-4-yl)-3-methyl-6-(pyridin-4-yl)pyrimidin-4(3H)-one] as the compound, how does the IC50 read?
Answer: 0.446 µM

Question: How did the IC50 turn out when Cn1c(N2CCCO[C@H](c3ccc(C(N)=O)cc3)C2)nc(-c2ccncc2)cc1=O [Compound A062, (R)-2-[2-(4-aminocarbonylphenyl)-1,4-oxazepan-4-yl]-3-methyl-6-(pyridin-4-yl)pyrimidin-4(3H)-one] was run?
Answer: 0.809 µM

Question: For Cn1c(N2CCCO[C@H](c3ccc(C#N)cc3)C2)nc(-c2ccncc2F)cc1=O [Compound A063, (R)-2-[2-(4-cyanophenyl)-1,4-oxazepan-4-yl]-6-(3-fluoropyridin-4-yl)-3-methylpyrimidin-4(3H)-one], which IC50 is on record?
Answer: 0.826 µM

Question: With C[C@@H]1COCCCN1c1nc(-c2ccncn2)cc(=O)n1C [Compound A064, (R)-3-methyl-2-(3-methyl-1,4-oxazepan-4-yl)-6-(pyrimidin-4-yl)pyrimidin-4(3H)-one] as the compound, how does the IC50 read?
Answer: 0.0232 µM

Question: For Cn1c(N2CCOCCC2c2ccccc2)nc(-c2ccncc2F)cc1=O (stereo not drawn) [Compound A066, 6-(3-fluoropyridin-4-yl)-3-methyl-2-(5-phenyl-1,4-oxazepan-4-yl)pyrimidin-4(3H)-one], which IC50 is on record?
Answer: 0.0055 µM

Question: Which IC50 does the source give for CC1CCOCCN1c1nc(-c2ccncc2F)cc(=O)n1C (stereo not drawn) [Compound A067, 6-(3-fluoropyridin-4-yl)-3-methyl-2-(5-methyl-1,4-oxazepan-4-yl)pyrimidin-4(3H)-one] here?
Answer: 0.0097 µM

Question: How did the IC50 turn out when CC1CCOCCN1c1nc(-c2ccncn2)cc(=O)n1C (stereo not drawn) [Compound A070, 3-methyl-2-(5-methyl-1,4-oxazepan-4-yl)-6-(pyrimidin-4-yl)pyrimidin-4(3H)-one] was run?
Answer: 0.0173 µM

Question: Cn1c(N2CCOCCC2c2ccccc2)nc(-c2ccncn2)cc1=O (stereo not drawn) [Compound A071, 3-methyl-2-(5-phenyl-1,4-oxazepan-4-yl)-6-(pyrimidin-4-yl)pyrimidin-4(3H)-one] was tested. Which IC50 did it give?
Answer: 0.041 µM

Question: With CCC1CCOCCN1c1nc(-c2ccncc2F)cc(=O)n1C (stereo not drawn) [Compound A072, 6-(3-fluoropyridin-4-yl)-3-methyl-2-(5-ethyl-1,4-oxazepan-4-yl)pyrimidin-4(3H)-one] as the compound, how does the IC50 read?
Answer: 0.065 µM

Question: CCC1CCOCCN1c1nc(-c2ccncn2)cc(=O)n1C (stereo not drawn) [Compound A073, 3-methyl-2-(5-ethyl-1,4-oxazepan-4-yl)-6-(pyrimidin-4-yl)pyrimidin-4(3H)-one] was tested. Which IC50 did it give?
Answer: 0.195 µM

Question: Cn1c(N2CCOC[C@@H](c3ccc(Br)cc3)C2)nc(-c2ccncn2)cc1=O [Compound A074, (S)-2-[6-(4-bromophenyl)-1,4-oxazepan-4-yl]-3-methyl-6-(pyrimidin-4-yl)pyrimidin-4(3H)-one] was tested. Which IC50 did it give?
Answer: 0.0012 µM

Question: Cn1c(N2CCOC[C@@H](c3ccc(C#N)cc3)C2)nc(-c2ccncn2)cc1=O [Compound A076, (S)-2-[6-(4-cyanoophenyl)-1,4-oxazepan-4-yl]-3-methyl-6-(pyrimidin-4-yl)pyrimidin-4(3H)-one] was tested. Which IC50 did it give?
Answer: 0.0031 µM

Question: For Cc1noc(-c2ccc(C3COCCN(c4nc(-c5ccncc5F)cc(=O)n4C)C3)cc2)n1 (stereo not drawn) [Compound A077, 2-[6-[4-(3-methyl-1,2,4-oxadiazol-5-yl)-phenyl]-1,4-oxazepan-4-yl]-6-(3-fluoropyridin-4-yl)-3-methylpyrimidin-4(3H)-one], which IC50 is on record?
Answer: 0.0059 µM

Question: For Cn1c(N2CCOCC(c3ccc(-c4ncon4)cc3)C2)nc(-c2ccncc2F)cc1=O (stereo not drawn) [Compound A078, 2-[6-[4-(1,2,4-oxadiazol-3-yl)-phenyl]-1,4-oxazepan-4-yl]-6-(3-fluoropyridin-4-yl)-3-methylpyrimidin-4(3H)-one], which IC50 is on record?
Answer: 0.0071 µM

Question: With Cn1c(N2CCCO[C@@H](c3cccc(Br)c3)C2)nc(-c2ccncn2)cc1=O [Compound A079, (S)-2-[2-(3-bromophenyl)-1,4-oxazepan-4-yl]-3-methyl-6-(pyrimidin-4-yl)pyrimidin-4(3H)-one] as the compound, how does the IC50 read?
Answer: 0.0073 µM

Question: For Cn1c(N2CCOCC(c3ccc(-c4ncno4)cc3)C2)nc(-c2ccncn2)cc1=O (stereo not drawn) [Compound A080, 2-[6-[4-(1,2,4-oxadiazol-5-yl)-phenyl]-1,4-oxazepan-4-yl]-3-methyl-6-(pyrimidin-4-yl)pyrimidin-4(3H)-one], which IC50 is on record?
Answer: 0.0108 µM

Question: Which IC50 does the source give for Cc1noc(-c2ccc(C3COCCN(c4nc(-c5ccncn5)cc(=O)n4C)C3)cc2)n1 (stereo not drawn) [Compound A081, 2-[6-[4-(3-methyl-1,2,4-oxadiazol-5-yl)-phenyl]-1,4-oxazepan-4-yl]-3-methyl-6-(pyrimidin-4-yl)pyrimidin-4(3H)-one] here?
Answer: 0.0129 µM

Question: Cn1c(N2CCOCC(c3ccc(-c4ncon4)cc3)C2)nc(-c2ccncn2)cc1=O (stereo not drawn) [Compound A082, 2-[6-[4-(1,2,4-oxadiazol-3-yl)-phenyl]-1,4-oxazepan-4-yl]-3-methyl-6-(pyrimidin-4-yl)-pyrimidin-4(3H)-one] was tested. Which IC50 did it give?
Answer: 0.0132 µM

Question: With Cc1nc(-c2ccc(C3COCCN(c4nc(-c5ccncc5F)cc(=O)n4C)C3)cc2)no1 (stereo not drawn) [Compound A083, 2-[6-[4-(5-methyl-1,2,4-oxadiazol-3-yl)-phenyl]-1,4-oxazepan-4-yl]-6-(3 fluoropyridin-4-yl)-3-methylpyrimidin-4(3H)-one] as the compound, how does the IC50 read?
Answer: 0.014 µM

Question: For CC1COCCN(c2nc(-c3ccncc3F)cc(=O)n2C)C1 (stereo not drawn) [Compound A084, 2-(6-methyl-1,4-oxazepan-4-yl)-6-(3-fluoropyridin-4-yl)-3-methylpyrimidin-4(3H)-one], which IC50 is on record?
Answer: 0.015 µM

Question: How did the IC50 turn out when Cc1nc(-c2ccc([C@@H]3COCCN(c4nc(-c5ccncn5)cc(=O)n4C)C3)cc2)no1 [Compound A085, (S)-2-[6-[4-(5-methyl-1,2,4-oxadiazol-3-yl)-phenyl]-1,4-oxazepan-4-yl]-3-methyl-6-(pyrimidin-4-yl)pyrimidin-4(3H)-one] was run?
Answer: 0.0167 µM

Question: How did the IC50 turn out when Cc1nc(-c2ccc(C3COCCN(c4nc(-c5ccncn5)cc(=O)n4C)C3)cc2)no1 (stereo not drawn) [Compound A086, 2-[6-[4-(5-methyl-1,2,4-oxadiazol-3-yl)-phenyl]-1,4-oxazepan-4-yl]-3-methyl-6-(pyrimidin-4-yl)pyrimidin-4(3H)-one] was run?
Answer: 0.0358 µM
